Reference: patent publication US7378435B2, “Aryl-isoxazole-4-carbonyl-indole-carboxylic acid amide derivatives” (Hoffmann-La Roche Inc., priority 2005, dated 2008)
Like-named read-outs stand apart in the source and are kept apart here.

Biological target: T1, GABA A receptor α5β3γ2 (Homo sapiens, UniProt P18507+P31644)
T1 construct: expressed in transfected cells; host or cells: HEK293 (transiently transfected for the human receptors)
Assay: [3H]flumazenil competition binding, human GABA A α5β3γ2 receptors expressed in HEK293 cells
Details: mean of two determinations
Method: The affinity of compounds at GABA A receptor subtypes was measured by competition for [3H]flumazenil (85 Ci/mmol; Roche) binding to HEK293 cells expressing rat (stably transfected) or human (transiently transfected) receptors of composition α1β3γ2, α2β3γ2, α3β3γ2 and α5β3γ2.
Cell pellets were suspended in Krebs-tris buffer (4.8 mM KCl, 1.2 mM CaCl2, 1.2 mM MgCl2, 120 mM NaCl, 15 mM Tris; pH 7.5; binding assay buffer), homogenized by polytron for ca. 20 sec on ice and centrifuged for 60 min at 4° C. (50000 g; Sorvall, rotor: SM24=20000 rpm). The cell pellets were resuspended in Krebs-tris buffer and homogenized by polytron for ca. 15 sec on ice. Protein was measured (Bradford method, Bio-Rad) and aliquots of 1 mL were prepared and stored at −80° C.
Radioligand binding assays were carried out in a volume of […] (96-well plates) which contained […] of cell membranes, [3H]flumazenil at a concentration of 1 nM for α1, α2, α3 subunits and 0.5 nM for α5 subunits and the test compound in the range of […]. Nonspecific binding was defined by 10^−5 M diazepam and typically represented less than 5% of the total binding. Assays were incubated to equilibrium for 1 hour at 4° C. and harvested onto GF/C uni-filters (Packard) by filtration using a Packard harvester and washing with ice-cold wash buffer (50 mM Tris; pH 7.5). After drying, filter-retained radioactivity was detected by liquid scintillation counting. Ki values were calculated using Excel-Fit (Microsoft) and are the means of two determinations.

[1] = human α5β3γ2, 0.5 nM [3H]flumazenil, read-out: Ki[μM] hα5
[2] = Table 1, human α5, [3H]flumazenil, read-out: Ki h

Structure (SMILES)	Ki [1]	Ki [2]
Cc1onc(-c2ccc(F)cc2)c1C(=O)c1c[nH]c2cc(C(=O)NCC3CC3)ccc12 [Example 1, 3-[3-(4-Fluoro-phenyl)-5-methyl-isoxazole-4-carbonyl]-1H-indole-6-carboxylic acid cyclopropylmethyl-amide]	0.00645 µM	
Cc1onc(-c2ccccc2)c1C(=O)c1c[nH]c2cc(C(=O)NCC3CC3)ccc12 [Example 2, 3-(5-Methyl-3-phenyl-isoxazole-4-carbonyl)-1H-indole-6-carboxylicacidcyclopropylmethyl-amide]	0.00545 µM	0.00545 µM
Cc1onc(-c2ccccc2)c1C(=O)c1c[nH]c2cc(C(=O)NCc3ccco3)ccc12 [Example 7, 3-(5-Methyl-3-phenyl-isoxazole-4-carbonyl)-1H-indole-6-carboxylicacid (furan-2-ylmethyl)-amide]	0.0053 µM	0.0053 µM
Cc1onc(-c2ccccc2)c1C(=O)c1c[nH]c2cc(C(=O)NC3CCCC3)ccc12 [Example 10, 3-(5-Methyl-3-phenyl-isoxazole-4-carbonyl)-1H-indole-6-carboxylicacidcyclopentylamide]		0.0137 µM
Cc1onc(-c2ccccc2)c1C(=O)c1c[nH]c2cc(C(=O)NC3CCOCC3)ccc12 [Example 11, 3-(5-Methyl-3-phenyl-isoxazole-4-carbonyl)-1H-indole-6-carboxylicacid (tetrahydro-pyran-4-yl)-amide]	0.00545 µM	0.00545 µM
Cc1onc(-c2ccc(F)cc2)c1C(=O)c1c[nH]c2cc(C(=O)NCc3ccccn3)ccc12 [Example 13, 3-[3-(4-Fluoro-phenyl)-5-methyl-isoxazole-4-carbonyl]-1H-indole-6-carboxylicacid (pyridin-2-ylmethyl)-amide]	0.00565 µM	0.00565 µM
Cc1onc(-c2ccc(F)cc2)c1C(=O)c1c[nH]c2cc(C(=O)NCCN3CCOCC3)ccc12 [Example 14, 3-[3-(4-Fluoro-phenyl)-5-methyl-isoxazole-4-carbonyl]-1H-indole-6-carboxylicacid (2-morpholin-4-yl-ethyl)-amide]	0.00455 µM	0.00455 µM
Cc1onc(-c2ccc(F)cc2)c1C(=O)c1c[nH]c2cc(C(=O)NCc3ccco3)ccc12 [Example 15, 3-[3-(4-Fluoro-phenyl)-5-methyl-isoxazole-4-carbonyl]-1H-indole-6-carboxylicacid (furan-2-ylmethyl)-amide]	0.00484 µM	0.00485 µM
C#CCN(C)C(=O)c1ccc2c(C(=O)c3c(-c4ccc(F)cc4)noc3C)c[nH]c2c1 [Example 19, 3-[3-(4-Fluoro-phenyl)-5-methyl-isoxazole-4-carbonyl]-1H-indole-6-carboxylicacid methyl-prop-2-ynyl-amide]		0.0606 µM
Cc1onc(-c2ccc(F)cc2)c1C(=O)c1c[nH]c2cc(C(=O)NC3CCOCC3)ccc12 [Example 21, 3-[3-(4-Fluoro-phenyl)-5-methyl-isoxazole-4-carbonyl]-1H-indole-6-carboxylicacid (tetrahydro-pyran-4-yl)-amide]	0.005 µM	0.005 µM
Cc1onc(-c2ccc(F)cc2)c1C(=O)c1c[nH]c2cc(C(=O)NC3CCCC3)ccc12 [Example 22, 3-[3-(4-Fluoro-phenyl)-5-methyl-isoxazole-4-carbonyl]-1H-indole-6-carboxylicacidcyclopentylamide]	0.00975 µM	0.00975 µM
Cc1onc(-c2ccc(F)cc2)c1C(=O)c1c[nH]c2cc(C(=O)NC3CCC3)ccc12 [Example 25, 3-[3-(4-Fluoro-phenyl)-5-methyl-isoxazole-4-carbonyl]-1H-indole-6-carboxylicacidcyclobutylamide]	0.00675 µM	0.00675 µM
Cc1onc(-c2cccc(F)c2)c1C(=O)c1c[nH]c2cc(C(=O)NCCc3cnc[nH]3)ccc12 [Example 26, 3-[3-(3-Fluoro-phenyl)-5-methyl-isoxazole-4-carbonyl]-1H-indole-6-carboxylicacid [2-(1H-imidazol-4-yl)-ethyl]-amide]		0.0235 µM
Cc1onc(-c2cccc(F)c2)c1C(=O)c1c[nH]c2cc(C(=O)NCc3ccccn3)ccc12 [Example 27, 3-[3-(3-Fluoro-phenyl)-5-methyl-isoxazole-4-carbonyl]-1H-indole-6-carboxylicacid (pyridin-2-ylmethyl)-amide]		0.0394 µM
Cc1onc(-c2cccc(F)c2)c1C(=O)c1c[nH]c2cc(C(=O)NCCN3CCOCC3)ccc12 [Example 28, 3-[3-(3-Fluoro-phenyl)-5-methyl-isoxazole-4-carbonyl]-1H-indole-6-carboxylicacid (2-morpholin-4-yl-ethyl)-amide]		0.0227 µM
Cc1onc(-c2cccc(F)c2)c1C(=O)c1c[nH]c2cc(C(=O)NCc3ccco3)ccc12 [Example 29, 3-[3-(3-Fluoro-phenyl)-5-methyl-isoxazole-4-carbonyl]-1H-indole-6-carboxylicacid (furan-2-ylmethyl)-amide]		0.0621 µM

The remaining molecules from weak to strong by Ki [2], led by results:

Ki [1]	Ki [2]	Structure (SMILES)
0.00435 µM	0.00435 µM	Cc1onc(-c2ccccc2)c1C(=O)c1c[nH]c2cc(C(=O)NC3CCC3)ccc12 [Example 9, 3-(5-Methyl-3-phenyl-isoxazole-4-carbonyl)-1H-indole-6-carboxylicacidcyclobutylamide]
0.0043 µM	0.0043 µM	Cc1onc(-c2ccc(F)cc2)c1C(=O)c1c[nH]c2cc(C(=O)NCCCN3CCOCC3)ccc12 [Example 17, 3-[3-(4-Fluoro-phenyl)-5-methyl-isoxazole-4-carbonyl]-1H-indole-6-carboxylicacid (3-morpholin-4-yl-propyl)-amide]
0.00395 µM	0.00395 µM	Cc1onc(-c2ccccc2)c1C(=O)c1c[nH]c2cc(C(=O)NCc3ccccn3)ccc12 [Example 5, 3-(5-Methyl-3-phenyl-isoxazole-4-carbonyl)-1H-indole-6-carboxylicacid (pyridin-2-ylmethyl)-amide]
0.00365 µM	0.00365 µM	Cc1onc(-c2ccc(F)cc2)c1C(=O)c1c[nH]c2cc(C(=O)NCc3ccncc3)ccc12 [Example 16, 3-[3-(4-Fluoro-phenyl)-5-methyl-isoxazole-4-carbonyl]-1H-indole-6-carboxylicacid (pyridin-4-ylmethyl)-amide]
0.0033 µM	0.0033 µM	Cc1onc(-c2ccccc2)c1C(=O)c1c[nH]c2cc(C(=O)NCCN3CCOCC3)ccc12 [Example 6, 3-(5-Methyl-3-phenyl-isoxazole-4-carbonyl)-1H-indole-6-carboxylicacid (2-morpholin-4-yl-ethyl)-amide]
0.00325 µM	0.00325 µM	C#CCNC(=O)c1ccc2c(C(=O)c3c(-c4ccc(F)cc4)noc3C)c[nH]c2c1 [Example 20, 3-[3-(4-Fluoro-phenyl)-5-methyl-isoxazole-4-carbonyl]-1H-indole-6-carboxylicacid prop-2-ynylamide]
0.00305 µM	0.00305 µM	Cc1onc(-c2ccc(F)cc2)c1C(=O)c1c[nH]c2cc(C(=O)NC3CC3)ccc12 [Example 23, 3-[3-(4-Fluoro-phenyl)-5-methyl-isoxazole-4-carbonyl]-1H-indole-6-carboxylicacidcyclopropylamide]
0.003 µM	0.003 µM	Cc1onc(-c2ccccc2)c1C(=O)c1c[nH]c2cc(C(=O)NC3CC3)ccc12 [Example 8, 3-(5-Methyl-3-phenyl-isoxazole-4-carbonyl)-1H-indole-6-carboxylicacidcyclopropylamide]
0.0029 µM	0.0029 µM	C#CCNC(=O)c1ccc2c(C(=O)c3c(-c4ccccc4)noc3C)c[nH]c2c1 [Example 3, 3-(5-Methyl-3-phenyl-isoxazole-4-carbonyl)-1H-indole-6-carboxylicacid prop-2-ynylamide]
0.00265 µM	0.00265 µM	Cc1onc(-c2ccccc2)c1C(=O)c1c[nH]c2cc(C(=O)NCCc3cnc[nH]3)ccc12 [Example 4, 3-(5-Methyl-3-phenyl-isoxazole-4-carbonyl)-1H-indol-6-carboxylicacid [2-(1H-imidazol-4-yl)-ethyl]-amide]
0.0026 µM	0.0026 µM	Cc1onc(-c2ccc(F)cc2)c1C(=O)c1c[nH]c2cc(C(=O)NCCc3cnc[nH]3)ccc12 [Example 12, 3-[3-(4-Fluoro-phenyl)-5-methyl-isoxazole-4-carbonyl]-1H-indole-6-carboxylicacid [2-(1H-imidazol-4-yl)-ethyl]-amide]
0.00225 µM	0.00225 µM	Cc1onc(-c2ccc(F)cc2)c1C(=O)c1c[nH]c2cc(C(=O)NCc3cccnc3)ccc12 [Example 24, 3-[3-(4-Fluoro-phenyl)-5-methyl-isoxazole-4-carbonyl]-1H-indole-6-carboxylicacid (pyridin-3-ylmethyl)-amide]
0.00185 µM	0.00185 µM	Cc1onc(-c2ccc(F)cc2)c1C(=O)c1c[nH]c2cc(C(=O)NCCO)ccc12 [Example 18, 3-[3-(4-Fluoro-phenyl)-5-methyl-isoxazole-4-carbonyl]-1H-indole-6-carboxylicacid (2-hydroxy-ethyl)-amide]
